In patent publication US12422427B2, “Compounds for treatment of diseases and methods of screening therefor” (Max-Planck-Gesellschaft zur Förderung der Wissenschaften …, priority 2018, dated 2025):
Entries after “also recorded” stand apart in the source; their conditions may differ.

How the values were obtained:
FUS GFP = target: T1, FUS GFP (Homo sapiens, UniProt P35637); assay: In vitro purified FUS GFP droplet screen; type: biochemical; details: low salt conditions, 1 mM DTT, up to 100 μM compound
T1 construct: His MBP (N, cleaved yes); made in house; host or cells: baculovirus/insect cell expression system
T1 sequence (P35637 1-526): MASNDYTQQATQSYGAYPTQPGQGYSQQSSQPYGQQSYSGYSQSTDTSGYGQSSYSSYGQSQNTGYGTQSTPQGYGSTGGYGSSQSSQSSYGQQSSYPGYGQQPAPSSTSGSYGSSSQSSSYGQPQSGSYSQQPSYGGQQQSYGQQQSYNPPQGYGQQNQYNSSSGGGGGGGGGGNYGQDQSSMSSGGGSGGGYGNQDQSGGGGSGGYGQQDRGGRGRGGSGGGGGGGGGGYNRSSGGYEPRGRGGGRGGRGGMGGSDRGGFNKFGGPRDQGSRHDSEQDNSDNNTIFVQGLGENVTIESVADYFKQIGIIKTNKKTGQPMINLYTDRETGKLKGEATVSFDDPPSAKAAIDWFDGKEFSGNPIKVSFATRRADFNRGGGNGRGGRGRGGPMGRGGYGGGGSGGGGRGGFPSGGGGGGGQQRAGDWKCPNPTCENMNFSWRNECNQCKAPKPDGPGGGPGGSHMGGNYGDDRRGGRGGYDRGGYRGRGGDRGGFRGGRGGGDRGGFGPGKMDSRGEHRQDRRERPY
Protocol: Compounds that can directly interact with FUS were of primary interest, therefore the inventors performed a follow up screen for action of compounds on FUS droplet formation in vitro (FIG. 1D). […] Hits were identified by the effect on number of FUS droplets formed and the partition of FUS into the droplets formed under low salt conditions in vitro in the presence of 1 mM DTT to mimic the reducing intracellular environment (FIG. 1E).
The effect of compounds on FUS GFP droplets in vitro was assessed in 384 well plate format. The compound volume (in DMSO) necessary for 1, 3, 10, 30 or 100 μM final concentration were added by acoustic dispensing (Labcyte Echo 550) to 96 well plate wells containing 3 μl FUS GFP diluted in 50 mM Tris. HCl pH 7.4, 1 mM DTT (for low salt assays). Final DMSO concentration was 0.01 to 1%. Using a Freedom Evo 200 liquid handling workstation (TECAN) the FUS GFP/compound mixture was diluted in 7 μl assay buffer containing 50 mM Tris. HCl pH 7.4, 1 mM DTT, 50 mM KCl and 0.7 μM FUS GFP. Compound/FUS GFP and assay buffer were mixed by a standardised pipetting procedure then split to four wells in clear bottom 384 well plates then immediately imaged using a CellVoyager CV7000 automated spinning disc confocal microscope (as above). […] Droplet number and FUS GFP partition into droplets were analysed with a fixed intensity threshold using ImageJ.

[1] = tested on: HeLa cells expressing FUS GFP; assay: HeLa FUS GFP live imaging: pre-stress then treatment, and pre-treatment with wash-out; type: cell-based
Protocol: To determine if lipoic acid can lead to dissolution of existing stress granules the inventors pre-stressed HeLa cells expressing FUS-GFP cells then treated them with lipoamide. […] This response is likely too rapid to represent a transcription/translation response.
To test if treatment of cells with lipoamide can give a persistent resistance to stress granule formation in the absence of continued lipoamide treatment 1 h pre-treatment of HeLa cells with 10 μM lipoamide followed by 1 h arsenate stress without lipoamide was tested.
Compound effects were assessed under a variety of conditions in HeLa or iPS cells expressing wild-type or P525L FUS GFP by live cell imaging. Different combinations of 1 h pre-treatment compound or pre-stress with arsenate followed by 1 h treatment with compound and/or stress with arsenate. […] GFP fluorescence was imaged by widefield epifluorescence using an inverted Olympus IX71 microscope with an Olympus 100× NA 1.4 Plan Apo oil immersion objective and a CoolSNAP HQ CCD camera (Photometrics), using a DeltaVision climate control unit (37° C., 5% CO2) (Applied Precision). The kinetics of pre-stress followed by treatment was analysed from images captured at 2 min intervals for 100 min, for single time points images were captured after 1 h unless otherwise indicated.

[2] = tested on: iPS MNs expressing P525L FUS; assay: Axonal transport of lysosomes in iPS motor neurons expressing P525L FUS; type: cell-based, human; details: 2 μM, 3 days
Protocol: FIG. 12A) Example kymographs of lysosome movement in the distal portion of FUS P525L GFP motor neuron axons after 3 days treatment with compound solvent (DMSO) or 2 μM lipoamide. Lysotracker fluorescence. FIG. 12B) Proportion of lysotracker-labelled lysosomes moving with an average speed greater than 2 μm/s following 3 days treatment with 2 μM lipoamide or equivalent DMSO concentration solvent control for motor neurons expressing either P525L or wild-type FUS. n=5 (P525L) or n=3 (wild-type) biological replicates, analysing 5 axon bundles per replicate.
For analysis of axonal transport iPS MNs expressing P525L FUS were treated with 2 μM compound or an equal volume of DMSO for 3 days. Longer incubation was selected to ensure penetration and action of compounds along the length of the axon channel. 2 μM was selected as the highest concentration where there were no toxic effects (assessed qualitatively). […] were labelled by addition of 50 nM lysotracker red (ThermoFisher) and imaged using a Leica DMI6000 inverted microscope with a 100× NA 1.46 oil immersion objective and an Andor iXON 897 EMCCD camera in an incubator chamber (37° C., 5% CO2) at 3⅓ Hz for 120 s at either the proximal or distal end of the silicone channels containing the axons. […]

NC(=O)CCCCC1CCSS1 (racemic) [lipoamide, 5-(1,2-dithiolan-3-yl)pentanamide]
FUS GFP droplet number, partition into droplets and droplet size (FUS GFP): increase condensate droplet number, partition into droplets and the droplets were larger; also recorded: larger drops
cytoplasmic FUS droplets dissolved ([1]; 1 h arsenate pre-stress, then 10 μM lipoamide with 1 mM arsenate, within 20 minutes): 80-90%
stress granule formation after compound wash-out ([1]; 1 h pre-treatment 10 μM, then 1 h arsenate stress without compound): did not prevent stress granule formation
axonal (lysosome) transport [2]: recovered axonal transport in P525L FUS iPS MNs to the same level as WT neurons; also recorded: significantly increased lysosome transport
